Columns and labels:
Format in all cases: physicochemical
[1] = Simulated Y-site compatibility: pH by potentiometric meter
Protocol: (§1) The acceptance criteria of “no incompatibility indicating change” over the four hour evaluation period is being applied to the Appearance and Description assay as well as the HIAC subvisible particulate assay. […] In addition to the Appearance and Description and HIAC testing, the pH of the solutions are monitored “for information only.” Before mixing of the two test solutions together; Appearance and Description, HIAC subvisible particulate testing, and pH are determined on each as controls.
(§2) Testing of Controls • 1. […] The remaining volumes of the two test articles are used immediately.
(§3) Preparation and Testing of Combined Solutions • 1. […] Approximately 30 ml of the combined solution is immediately removed for 0 hour Appearance and Description, subvisible particulates by HIAC and pH testing. The beaker with the remaining solution is then recovered with Parafilm and the headspace flushed with nitrogen. • 2. The sampling and testing of 30 ml aliquots is repeated after one and four hours.
pH is measured using a potentiometric meter capable of measuring pH values reproducibly within 0.02 pH units and having electrodes suitable for pH meter use.
(§4) All drug products are prepared per package insert directions; some drugs having wide therapeutic ranges are tested at multiple concentrations, and some drugs with different formulations are tested. A simulation of the mixing which would occur at an intravenous administration set Y-site is used, and the period for evaluation of compatibility exaggerated the generally short time that the two agents would be together prior to venous circulation. Test solutions before and after mixing are measured by visual observation, by light obscuration for subvisible particulates (HIAC), and by potentiometry over a four hour period.

[2] = Simulated Y-site compatibility: subvisible particulates by light obscuration (HIAC, USP 788); conditions: for Subvisible Particulates (HIAC) ≧10 μm / Subvisible Particulates (HIAC) ≧25 μm: each before mixing, 0 hours; for HIAC ≧10 μm / HIAC ≧25 μm: each solution before mixing, 0 Hours
Excerpt: Sub-visible particulate formation may be measured by light obscuration (HIAC) as per United States Pharmacopeia USP Chapter 788 Particulate Matter in Injections.
This time period has become standard when performing these “simulated Y-site” studies, although the actual residence time for the two solutions in the administration set may not exceed eight minutes prior to entering the venous system.
The acceptance criteria of “no incompatibility indicating change” over the four hour evaluation period is being applied to the Appearance and Description assay as well as the HIAC subvisible particulate assay. Thus, for instance, formation of visible particulates or increase of subvisible particulates would indicate an incompatibility and would result in a “Y-site incompatible” classification for that diluent or drug. In addition to the Appearance and Description and HIAC testing, the pH of the solutions are monitored “for information only.” Before mixing of the two test solutions together; Appearance and Description, HIAC subvisible particulate testing, and pH are determined on each as controls.
as §2, §3
The following tests are performed immediately after sampling: • 1. Appearance and Description for color, visible particulates, and turbidity measured using a Black and White background light box with a fluorescent lamp capable of producing intensity of illumination between 2000 and 3750 lux. • 2. Sub visible particulates are measured by light obscuration (HIAC) as per United States Pharmacopeia USP Chapter 788 Particulate Matter in Injections.
as §4

[3] = Compatibility classification of intravenous diluents and drugs under simulated Y-site conditions with Tigecycline for Injection; conditions: Dobutamine final concentration 1.0 mg/ml, mixed with Tigecycline for Injection, four hour period
Protocol: as §4

[4] = Compatibility of tigecycline with heparin (simulated Y-site study, overall finding); conditions: common point of administration, e.g. Y-site, without saline flush
Protocol: A study is performed to determine the compatibility of tigecycline solutions with heparin. Heparin is prepared for this study as per the directions given in the package insert. The compatibility testing is performed using a “simulated Y-site” technique developed and published by Trissel et. al. “Compatibility of Fenoldopam Mesylate with other Drugs during Simulated Y-site Administration, Am. J. Health-System Pharmacy, Vol. 60, 80-85, 2003; Trissel, et. al. “Physical Compatibility of Antithymocyte Globulin (Rabbit) with Heparin Sodium and Hydrocortisone Sodium, Vol. 60, 1650-1652, 2003; Trissel et. al. “Compatibility Screening of Bivalirudin during Simulated Y-site Administration with Other Drugs, and Trissel et. al. “Compatibility of piperacillin sodium plus tazobactum with selected drugs during simulated Y-site injection, Am. J. Hosp. Pharm., Vol. 51, 672-678, 1994. […]
as §1

[5] = Table 5: Tigecycline and Dopamine solutions, each before mixing, 0 hours
[6] = Table 5: Tigecycline and Dopamine solutions
[7] = Table 4: Tigecycline and Dobutamine solutions, each before mixing, 0 hours
[8] = Table 4: Tigecycline and Dobutamine solutions
[9] = Table 6: Tigecycline and Chlorpromazine solutions
[10] = Table 1: Tigecycline 1 mg/mL in NS, Heparin 10 Units/ml in NS
[11] = Table 2: Tigecycline 1 mg/mL in NS, Heparin 100 Units/ml in NS

Row | SMILES | pH [1, 5] | Subvisible Particulates (HIAC) ≧10 μm [2, 6] [particles/ml] | Subvisible Particulates (HIAC) ≧25 μm [2, 6] [particles/ml] | pH [1, 7] | Compatibility Classification [3] | Subvisible Particulates (HIAC) ≧10 μm [2, 8] [particles/ml] | Subvisible Particulates (HIAC) ≧25 μm [2, 8] [particles/ml] | pH ([1]; Table 6: Tigecycline and Chlorpromazine solutions, each before mixing, 0 hours) | Subvisible Particulates (HIAC) ≧10 μm [2, 9] [particles/ml] | Subvisible Particulates (HIAC) ≧25 μm [2, 9] [particles/ml] | pH ([1]; Table 2: Tigecycline 1 mg/mL in NS, Heparin 100 Units/ml in NS, each solution before mixing, 0 Hours) | compatibility with the administration of heparin [4] | HIAC ≧10 μm [2, 10] [particles/mL] | HIAC ≧25 μm [2, 10] [particles/mL] | HIAC ≧10 μm [2, 11] [particles/mL] | HIAC ≧25 μm [2, 11] [particles/mL]
1 | NCCc1ccc(O)c(O)c1 [Dopamine, reference compound] | 3.59 | 3.1 | 0.1 | – | – | – | – | – | – | – | – | – | – | – | – | –
2 | CC(CCc1ccc(O)cc1)NCCc1ccc(O)c(O)c1 (stereo not drawn) [Dobutamine, reference compound] | – | – | – | 4.18 | Compatible | 5.9 | 0.6 | – | – | – | – | – | – | – | – | –
3 | CN(C)CCCN1c2ccccc2Sc2ccc(Cl)cc21 [Chlorpromazine, reference compound] | – | – | – | – | – | – | – | 4.61 | 21.9 | 2.9 | – | – | – | – | – | –
4 | CN(C)c1cc(NC(=O)CNC(C)(C)C)c(O)c2c1C[C@H]1C[C@H]3[C@H](N(C)C)C(O)=C(C(N)=O)C(=O)[C@@]3(O)C(O)=C1C2=O [Tigecycline, (4S,4aS,5aR,12aS)-9-[2-(tert-butylamino)acetamido]-4,7-bis(dimethylamino)-1,4,4a,5,5a,6,11,12a-octahydro-3,10,12,12a-tetrahydroxy-1,11-dioxo-2-naphthacenecarboxamide] | 7.84 | 82.3 | 2.2 | 7.81 | – | 35.8 | 0.9 | – | 27.4 | 1.3 | 7.82 | compatible | 39.3 | 1.4 | 69.1 | 6.2
